Experiments:
[1] = tested on: HCV sub-genomic replicon, GS4.3; test: Quantitation by ELISA of NPTII in the HCV sub-genomic replicon, GS4.3, Section B; type: cell-based; details: Hepatitis C virus; GS4.3 cells, 72 h incubation; read-out: Replicon EC50
Summary of the method: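 GS4.3 cells (HuH-7 carrying HCV 1377/NS3-3′ replicon) were treated 72 h at 37 °C with inhibitors in 3-fold dilutions, 1% DMSO, no G418. Lysate NPTII was measured by ELISA (TMB, 450 nm). Signal as % of DMSO control; EC50 from 4-parameter fit.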

NS3-NS4A protease = biological target: T1, NS3-NS4A protease (Hepatitis C virus genotype 1a, UniProt P27958); test: NS3-NS4A protease assay (NS3 inhibition assay, RETS1 substrate), Section B; type: biochemical; details: read-out: NS3-NS4A IC50
T1 construct: Recombinant E. coli or Baculovirus full-length NS3 was diluted to 3.33 μM with assay buffer; made in house; host or cells: E. coli or baculovirus (BV) system
T1 sequence (P27958 1027-1657): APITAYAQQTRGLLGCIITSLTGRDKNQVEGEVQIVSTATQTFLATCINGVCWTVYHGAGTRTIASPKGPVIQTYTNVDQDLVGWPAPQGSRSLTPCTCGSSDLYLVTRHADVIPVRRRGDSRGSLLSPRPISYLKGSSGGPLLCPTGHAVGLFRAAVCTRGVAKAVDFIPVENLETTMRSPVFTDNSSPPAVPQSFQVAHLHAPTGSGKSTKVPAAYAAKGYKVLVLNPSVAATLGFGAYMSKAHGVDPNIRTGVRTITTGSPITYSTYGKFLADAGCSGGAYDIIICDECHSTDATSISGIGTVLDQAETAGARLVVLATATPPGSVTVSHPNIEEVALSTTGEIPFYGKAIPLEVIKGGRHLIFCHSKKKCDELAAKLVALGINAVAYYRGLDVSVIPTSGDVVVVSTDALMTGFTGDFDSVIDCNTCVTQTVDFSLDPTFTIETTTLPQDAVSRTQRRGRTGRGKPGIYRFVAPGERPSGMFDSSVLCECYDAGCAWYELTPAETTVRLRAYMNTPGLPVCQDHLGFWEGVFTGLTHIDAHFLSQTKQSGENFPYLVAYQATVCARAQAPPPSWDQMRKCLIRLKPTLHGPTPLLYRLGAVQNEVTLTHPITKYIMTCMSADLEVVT
Summary of the method: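 Full-length NS3 (E. coli or baculovirus) precomplexed with excess NS4A-2 peptide, run at 2 nM (E. coli) or 3 nM (BV) NS3; compounds pre-incubated 10 min at room temperature before RETS1 substrate. Fluorescence (ex 335/em 495 nm) read kinetically 30 min; IC50 from four-parameter fit, converted to Ki via Ki=IC50/(1+[S]/Km).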

In the case of `O=C(N[C@H]1CCCCC/C=C\[C@@H]2C[C@@]2(C(=O)NS(=O)(=O)C2CC2)NC(=O)[C@@H]2C[C@@H](OC(=O)N3CCc4ccccc4C3)CN2C1=O)OCC(F)(F)F` [AR00320578, (1S,4R,6S,14S,18R)-3,4-Dihydro-1H-isoquinoline-2-carboxylic acid 4-cyclopropanesulfonylaminocarbonyl-2,15-dioxo-14-(2,2,2-trifluoro-ethoxycarbonylamino)-3,16-diaza-tricyclo[14.3.0.0^4,6]nonadec-7-en-18-yl ester], the EC50 [1] is reported as less than 100 nM and the IC50 (NS3-NS4A protease) is reported as less than 100 nM.
For `O=C(N[C@H]1CCCCC/C=C\[C@@H]2C[C@@]2(C(=O)NS(=O)(=O)C2CC2)NC(=O)[C@@H]2C[C@@H](OC(=O)N3CCc4ccccc4C3)CN2C1=O)OCC(F)F` [AR00320579, (1S,4R,6S,14S,18R)-3,4-Dihydro-1H-isoquinoline-2-carboxylic acid 4-cyclopropanesulfonylaminocarbonyl-14-(2,2-difluoro-ethoxycarbonylamino)-2,15-dioxo-3,16-diaza-tricyclo[14.3.0.0^4,6]nonadec-7-en-18-yl ester], the EC50 [1] was less than 100 nM and the IC50 (NS3-NS4A protease) was less than 100 nM.
Work on `O=C(N[C@H]1CCCCC/C=C\[C@@H]2C[C@@]2(C(=O)NS(=O)(=O)C2CC2)NC(=O)[C@@H]2C[C@@H](OC(=O)N3CCc4ccccc4C3)CN2C1=O)OC(CF)CF` [AR00320580, (1S,4R,6S,14S,18R)-3,4-Dihydro-1H-isoquinoline-2-carboxylic acid 4-cyclopropanesulfonylaminocarbonyl-14-(2-fluoro-1-fluoromethyl-ethoxycarbonylamino)-2,15-dioxo-3,16-diaza-tricyclo[14.3.0.0^4,6]nonadec-7-en-18-yl ester] yielded an EC50 [1] of less than 100 nM and an IC50 (NS3-NS4A protease) of less than 100 nM.
`CC(OC(=O)N[C@H]1CCCCC/C=C\[C@@H]2C[C@@]2(C(=O)NS(=O)(=O)C2CC2)NC(=O)[C@@H]2C[C@@H](OC(=O)N3CCc4ccccc4C3)CN2C1=O)C(F)(F)F` (stereo partly drawn) [AR00320581, (1S,4R,6S,14S,18R)-3,4-Dihydro-1H-isoquinoline-2-carboxylic acid 4-cyclopropanesulfonylaminocarbonyl-2,15-dioxo-14-(2,2,2-trifluoro-1-methyl-ethoxycarbonylamino)-3,16-diaza-tricyclo[14.3.0.0^4,6]nonadec-7-en-18-yl ester] showed an EC50 [1] of less than 100 nM and an IC50 (NS3-NS4A protease) of less than 100 nM.
In the case of `CC(C)(OC(=O)N[C@H]1CCCCC/C=C\[C@@H]2C[C@@]2(C(=O)NS(=O)(=O)C2CC2)NC(=O)[C@@H]2C[C@@H](OC(=O)N3CCc4ccccc4C3)CN2C1=O)C(F)(F)F` [AR00320582, (1S,4R,6S,14S,18R)-3,4-Dihydro-1H-isoquinoline-2-carboxylic acid 4-cyclopropanesulfonylaminocarbonyl-2,15-dioxo-14-(2,2,2-trifluoro-1,1-dimethyl-ethoxycarbonylamino)-3,16-diaza-tricyclo[14.3.0.0^4,6]nonadec-7-en-18-yl ester], the EC50 [1] is reported as less than 100 nM and the IC50 (NS3-NS4A protease) is reported as less than 100 nM.
`C[C@H]1CN(C(=O)O[C@@H]2C[C@H]3C(=O)N[C@]4(C(=O)NS(=O)(=O)C5CC5)C[C@H]4/C=C\CCCCC[C@H](NC(=O)OC(C)(C)C)C(=O)N3C2)Cc2ccccc21` [AR00333462, (1S,4R,6S,14S,18R)-4R-Methyl-3,4-dihydro-1H-isoquinoline-2-carboxylic acid 14-tert-butoxycarbonylamino-4-cyclopropanesulfonylaminocarbonyl-2,15-dioxo-3,16-diaza-tricyclo[14.3.0.0^4,6]nonadec-7-en-18-yl ester] was tested, and the EC50 [1] was less than 100 nM and the IC50 (NS3-NS4A protease) was less than 100 nM.
Molecule `C[C@@H]1CN(C(=O)O[C@@H]2C[C@H]3C(=O)N[C@]4(C(=O)NS(=O)(=O)C5CC5)C[C@H]4/C=C\CCCCC[C@H](NC(=O)OC(C)(C)C)C(=O)N3C2)Cc2ccccc21` [AR00333463, (1S,4R,6S,14S,18R)-4S-Methyl-3,4-dihydro-1H-isoquinoline-2-carboxylic acid 14-tert-butoxycarbonylamino-4-cyclopropanesulfonylaminocarbonyl-2,15-dioxo-3,16-diaza-tricyclo[14.3.0.0^4,6]nonadec-7-en-18-yl ester] has an EC50 [1] of less than 100 nM and an IC50 (NS3-NS4A protease) of less than 100 nM.
Work on `CC(C)S(=O)(=O)NC(=O)[C@@]12C[C@H]1/C=C\CCCCC[C@H](NC(=O)OC(C)(C)C)C(=O)N1C[C@H](OC(=O)N3Cc4ccccc4C3)C[C@H]1C(=O)N2` [AR00333801, (1S,4R,6S,14S,18R)-1,3-Dihydro-isoindole-2-carboxylic acid 14-tert-butoxycarbonylamino-2,15-dioxo-4-(propane-2-sulfonylaminocarbonyl)-3,16-diaza-tricyclo[14.3.0.0^4,6]nonadec-7-en-18-yl ester] yielded an EC50 [1] of less than 100 nM and an IC50 (NS3-NS4A protease) of less than 100 nM.
In the case of `CC(C)(C)OC(=O)N[C@H]1CCCCC/C=C\[C@@H]2C[C@@]2(C(=O)NS(=O)(=O)c2ccccc2)NC(=O)[C@@H]2C[C@@H](OC(=O)N3Cc4ccccc4C3)CN2C1=O` [AR00333802, (1S,4R,6S,14S,18R)-1,3-Dihydro-isoindole-2-carboxylic acid 4-benzenesulfonylaminocarbonyl-14-tert-butoxycarbonylamino-2,15-dioxo-3,16-diaza-tricyclo[14.3.0.0^4,6]nonadec-7-en-18-yl ester], the EC50 [1] is reported as less than 100 nM and the IC50 (NS3-NS4A protease) is reported as less than 100 nM.
In the case of `CC(C)(C)OC(=O)N[C@H]1CCCCC/C=C\[C@@H]2C[C@@]2(C(=O)NS(C)(=O)=O)NC(=O)[C@@H]2C[C@@H](OC(=O)N3Cc4ccccc4C3)CN2C1=O` [AR00333803, (1S,4R,6S,14S,18R)-1,3-Dihydro-isoindole-2-carboxylic acid 14-tert-butoxycarbonylamino-4-methanesulfonylaminocarbonyl-2,15-dioxo-3,16-diaza-tricyclo[14.3.0.0^4,6]nonadec-7-en-18-yl ester], the EC50 [1] is reported as less than 1000 nM and the IC50 (NS3-NS4A protease) is reported as less than 100 nM.
For `O=C(N[C@H]1CCCCCC=C[C@@H]2C[C@@]2(C(=O)NS(=O)(=O)C2CC2)NC(=O)[C@@H]2C[C@@H](OC(=O)N3Cc4ccccc4C3)CN2C1=O)OC1CCCC1` [AR00333831, (1S,4R,6S,14S,18R)-1,3-Dihydro-isoindole-2-carboxylic acid 14-cyclopentyloxycarbonylamino-4-cyclopropanesulfonylaminocarbonyl-2,15-dioxo-3,16-diaza-tricyclo[14.3.0.0^4,6]nonadec-7-en-18-yl ester], the EC50 [1] was less than 100 nM and the IC50 (NS3-NS4A protease) was less than 100 nM.
For `COCC1c2ccc(OC)cc2CCN1C(=O)O[C@@H]1C[C@H]2C(=O)N[C@]3(C(=O)O)C[C@H]3/C=C\CCCCC[C@H](NC(=O)OC(C)(C)C)C(=O)N2C1` (stereo partly drawn) [AR00333842, (1S,4R,6S,14S,18R)-14-tert-Butoxycarbonylamino-18-(6-methoxy-1-methoxymethyl-3,4-dihydro-1H-isoquinoline-2-carbonyloxy)-2,15-dioxo-3,16-diaza-tricyclo[14.3.0.0^4,6]nonadec-7-ene-4-carboxylic acid], the EC50 [1] was less than 10000 nM and the IC50 (NS3-NS4A protease) was less than 1000 nM.
For `CC(C)(C)OC(=O)N[C@H]1CCCCC/C=C\[C@@H]2C[C@@]2(C(=O)NS(=O)(=O)c2ccc(Cl)s2)NC(=O)[C@@H]2C[C@@H](OC(=O)N3Cc4ccccc4C3)CN2C1=O` [AR00334188, (1S,4R,6S,14S,18R)-1,3-Dihydro-isoindole-2-carboxylic acid 14-tert-butoxycarbonylamino-4-(5-chloro-thiophene-2-sulfonylaminocarbonyl)-2,15-dioxo-3,16-diaza-tricyclo[14.3.0.0^4,6]nonadec-7-en-18-yl ester], the EC50 [1] was less than 1000 nM and the IC50 (NS3-NS4A protease) was less than 100 nM.

Reference: patent US7491794B2, “Macrocyclic compounds as inhibitors of viral replication” (Intermune, Inc., priority 2003, dated 2009)
